In US20110230472A1, “RING-FUSED AZOLE DERIVATIVE HAVING PI3K-INHIBITING ACTIVITY” (Shionogi & Co., Ltd., priority 2008, published 2011):

Experiments:
PI-3 kinase γ = PI-3 kinase γ (Homo sapiens, UniProt P48736); assay: PI3Kγ inhibitory activity, PI3-kinase HTRF assay (inhibition ratio); assay type: biochemical; details: 0.5 h
In short: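 PI3Kγ preincubated 10 min with compound and PIP2 substrate (MgCl2, DTT), then ATP added for 30 min at room temperature. PIP3 detected by HTRF (665/620 nm ratio) after 18 h. Inhibition ratio at 50 or 10 μmol/L, normalised to no-compound and no-enzyme controls.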

Solubility test = assay type: physicochemical; details: kinetic from dmso stock; artificial intestinal juice pH 6.8, 1% DMSO, 25° C. for 16 hours
Protocol: The solubility of a compound was determined under a condition in which 1% DMSO was added. 10 mmol/L compound solution was prepared using DMSO, and then 6 μL of the compound solution was added to 594 μL of artificial intestinal juice in pH 6.8 (to 250 mL of 0.2 mol/L potassium dihydrogen phosphate reagent solution was added 118 mL of 0.2 mol/L NaOH reagent solution and water to provide a final volume of 1000 mL). After standing at 25° C. for 16 hours, the mixed solution was filtered with suction. The filtrate was diluted twice with methanol/water (1/1), and then a concentration in the filtration was measured with HPLC or LC/MS/MS by the absolute calibration method.

CYP2D6 = molecular target: T1, CYP2D6 (Homo sapiens, UniProt P10635); assay: CYP inhibition test, pooled human liver microsome, CYP2D6; assay type: in vitro ADME; details: O-demethylation of dextromethorphan
T1 construct: enzyme: pooled human liver microsome 0.2 mg protein/mL; from tissue; host or cells: pooled human liver microsome
Text: (§1) O-de-ethylation of 7-ethoxyresorufin (CYP1A2), methyl-hydroxylation of tolbutamide (CYP2C9), 4′-hydroxylation of mephenyloin (CYP2C19), O-demethylation of dextromethorphan (CYP2D6), and hydroxylation of terfenadine (CYP3A4), which are typical substrate for metabolic reactions of human main CYP5 molecular species (CYP1A2, 2C9, 2C19, 2D6, and 3A4), were adopted as indexes.
(§2) The reaction conditions are as follows: substrate: 0.5 μmol/L of ethoxyresorufin (CYP1A2), 100 μmol/L of tolbutamide (CYP2C9), […] of S-mephenyloin (CYP2C19), 5 μmol/L of dextromethorphan (CYP2D6), and 1 μmol/L of terfenadine (CYP3A4); reaction time; 15 minutes; reaction temperature: 37° C.; enzyme: pooled human liver microsome 0.2 mg protein/mL; test drug concentration: 1, 5, 10, and 20 μmol/L (4 points).
(§3) In a 96-well plate, as a reaction solution, five kinds of substrates, a human liver microsome, and a test drug were added to 50 mmol/L Hepes buffer solution in the aforementioned ratio. A coenzyme NADPH was added to start a metabolic reaction, which is an index. After reacting at 37° C. for 15 minutes, a solution of methanol/acetonitrile (1/1 (v/v)) was added to quench the reaction. After centrifugation at 3000 rpm for 15 minutes, resorufin (CYP1A2 metabolite) in the supernatant was quantitated with a fluorescence multilabel counter, and hydroxylated tolbutamide (CYP2C9 metabolite), 4′-hydroxylated mephenyloin (CYP2C19 metabolite), […], terfenadine in alcohol form (CYP3A4 metabolite) were quantitated with LC/MS/MS.
(§4) The case wherein only DMSO (a solvent which dissolved a drug) was added to a reaction system was defined as a control (100%). When a test drug solution was added, the remaining activity (%) at each concentration was calculated, and then IC50 was calculated with a concentration and an inhibition ratio by an inverse estimation using a logistic model.

CYP1A2 = molecular target: T2, CYP1A2 (Homo sapiens, UniProt P05177); assay: CYP inhibition test, pooled human liver microsome, CYP1A2; assay type: in vitro ADME; details: O-de-ethylation of 7-ethoxyresorufin
T2 construct: enzyme: pooled human liver microsome 0.2 mg protein/mL; from tissue; host or cells: pooled human liver microsome
T2 sequence (P05177 1-516): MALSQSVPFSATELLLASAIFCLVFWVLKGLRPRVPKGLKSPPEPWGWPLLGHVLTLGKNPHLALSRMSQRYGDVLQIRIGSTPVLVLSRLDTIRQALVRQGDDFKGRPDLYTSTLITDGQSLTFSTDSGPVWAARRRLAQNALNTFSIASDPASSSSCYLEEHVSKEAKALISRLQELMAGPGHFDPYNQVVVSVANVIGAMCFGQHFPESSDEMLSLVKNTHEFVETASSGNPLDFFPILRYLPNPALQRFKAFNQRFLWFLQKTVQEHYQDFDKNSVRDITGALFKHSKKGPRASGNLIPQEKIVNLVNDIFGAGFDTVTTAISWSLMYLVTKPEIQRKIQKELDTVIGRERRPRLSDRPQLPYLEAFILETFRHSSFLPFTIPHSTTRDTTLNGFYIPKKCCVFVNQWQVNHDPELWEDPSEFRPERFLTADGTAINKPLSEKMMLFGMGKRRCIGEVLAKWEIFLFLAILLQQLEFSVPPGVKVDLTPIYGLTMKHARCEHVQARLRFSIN
Text: as §1, §2, §3, §4

CYP2C19 = molecular target: T3, CYP2C19 (Homo sapiens, UniProt P33261); assay: CYP inhibition test, pooled human liver microsome, CYP2C19; assay type: in vitro ADME; details: 4′-hydroxylation of mephenyloin
T3 construct: enzyme: pooled human liver microsome 0.2 mg protein/mL; from tissue; host or cells: pooled human liver microsome
Text: as §1, §2, §3, §4

CYP2C9 = molecular target: T4, CYP2C9 (Homo sapiens, UniProt P11712); assay: CYP inhibition test, pooled human liver microsome, CYP2C9; assay type: in vitro ADME; details: methyl-hydroxylation of tolbutamide
T4 construct: enzyme: pooled human liver microsome 0.2 mg protein/mL; from tissue; host or cells: pooled human liver microsome
Text: as §1, §2, §3, §4

CYP3A4 = molecular target: T5, CYP3A4 (Homo sapiens, UniProt P08684); assay: CYP inhibition test, pooled human liver microsome, CYP3A4; assay type: in vitro ADME; details: hydroxylation of terfenadine
T5 construct: enzyme: pooled human liver microsome 0.2 mg protein/mL; from tissue; host or cells: pooled human liver microsome
Text: as §1, §2, §3, §4

T5 sequence (P08684 whole entry): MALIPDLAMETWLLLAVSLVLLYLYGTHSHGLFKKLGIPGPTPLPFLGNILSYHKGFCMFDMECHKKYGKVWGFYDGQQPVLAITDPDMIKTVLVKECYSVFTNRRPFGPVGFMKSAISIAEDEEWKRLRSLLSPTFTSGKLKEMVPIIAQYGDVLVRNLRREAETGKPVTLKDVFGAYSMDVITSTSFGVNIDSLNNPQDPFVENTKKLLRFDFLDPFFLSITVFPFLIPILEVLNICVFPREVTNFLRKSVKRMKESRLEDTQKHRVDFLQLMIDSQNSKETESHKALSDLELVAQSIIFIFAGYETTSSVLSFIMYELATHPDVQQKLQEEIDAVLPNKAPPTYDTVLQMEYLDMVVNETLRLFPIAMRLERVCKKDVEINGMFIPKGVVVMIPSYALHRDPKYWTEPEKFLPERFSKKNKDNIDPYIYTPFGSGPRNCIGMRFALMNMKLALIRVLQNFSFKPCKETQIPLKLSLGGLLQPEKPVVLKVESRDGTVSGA
Sequence of PI-3 kinase γ (P48736 whole entry): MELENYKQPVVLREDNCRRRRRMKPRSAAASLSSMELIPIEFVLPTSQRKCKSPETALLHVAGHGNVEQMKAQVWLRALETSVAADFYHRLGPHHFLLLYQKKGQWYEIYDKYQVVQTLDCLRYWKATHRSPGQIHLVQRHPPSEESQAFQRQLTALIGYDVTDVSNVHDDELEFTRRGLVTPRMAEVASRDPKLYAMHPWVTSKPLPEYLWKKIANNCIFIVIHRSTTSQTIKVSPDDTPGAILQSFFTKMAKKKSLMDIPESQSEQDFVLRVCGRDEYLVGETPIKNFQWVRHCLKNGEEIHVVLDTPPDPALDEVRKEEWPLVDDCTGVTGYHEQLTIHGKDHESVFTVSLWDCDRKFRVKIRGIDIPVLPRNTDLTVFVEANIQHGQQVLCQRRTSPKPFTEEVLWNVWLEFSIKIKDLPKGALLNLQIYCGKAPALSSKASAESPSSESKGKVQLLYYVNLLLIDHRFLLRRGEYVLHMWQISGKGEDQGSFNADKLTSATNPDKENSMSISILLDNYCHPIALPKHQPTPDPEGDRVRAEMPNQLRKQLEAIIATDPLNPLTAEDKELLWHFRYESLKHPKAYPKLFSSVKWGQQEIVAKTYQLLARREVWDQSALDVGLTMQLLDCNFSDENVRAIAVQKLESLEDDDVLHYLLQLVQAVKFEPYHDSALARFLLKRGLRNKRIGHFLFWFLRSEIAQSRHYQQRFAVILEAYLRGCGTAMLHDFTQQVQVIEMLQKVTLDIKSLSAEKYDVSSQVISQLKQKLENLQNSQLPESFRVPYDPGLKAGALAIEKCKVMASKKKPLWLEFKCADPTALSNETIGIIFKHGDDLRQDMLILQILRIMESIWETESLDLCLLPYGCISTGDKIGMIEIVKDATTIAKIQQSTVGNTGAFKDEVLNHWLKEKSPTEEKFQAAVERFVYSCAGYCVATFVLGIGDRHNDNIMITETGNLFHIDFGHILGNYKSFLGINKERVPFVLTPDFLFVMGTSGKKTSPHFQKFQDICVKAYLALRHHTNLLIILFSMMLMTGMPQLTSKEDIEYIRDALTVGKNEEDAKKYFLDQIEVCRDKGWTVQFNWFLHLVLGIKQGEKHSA
T3 sequence (P33261 whole entry): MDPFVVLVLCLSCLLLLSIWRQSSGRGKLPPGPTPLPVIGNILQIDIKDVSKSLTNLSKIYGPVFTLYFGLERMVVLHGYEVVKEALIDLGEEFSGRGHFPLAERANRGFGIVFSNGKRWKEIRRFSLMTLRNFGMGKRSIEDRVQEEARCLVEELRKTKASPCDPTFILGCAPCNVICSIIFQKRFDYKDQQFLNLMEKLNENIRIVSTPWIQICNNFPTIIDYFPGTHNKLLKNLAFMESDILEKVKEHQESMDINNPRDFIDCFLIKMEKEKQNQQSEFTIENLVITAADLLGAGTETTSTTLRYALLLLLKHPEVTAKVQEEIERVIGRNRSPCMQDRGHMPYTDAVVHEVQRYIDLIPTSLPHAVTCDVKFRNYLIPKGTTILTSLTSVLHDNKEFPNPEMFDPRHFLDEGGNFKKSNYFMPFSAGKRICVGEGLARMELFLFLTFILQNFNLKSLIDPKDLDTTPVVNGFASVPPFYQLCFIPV
T1 sequence (P10635 whole entry): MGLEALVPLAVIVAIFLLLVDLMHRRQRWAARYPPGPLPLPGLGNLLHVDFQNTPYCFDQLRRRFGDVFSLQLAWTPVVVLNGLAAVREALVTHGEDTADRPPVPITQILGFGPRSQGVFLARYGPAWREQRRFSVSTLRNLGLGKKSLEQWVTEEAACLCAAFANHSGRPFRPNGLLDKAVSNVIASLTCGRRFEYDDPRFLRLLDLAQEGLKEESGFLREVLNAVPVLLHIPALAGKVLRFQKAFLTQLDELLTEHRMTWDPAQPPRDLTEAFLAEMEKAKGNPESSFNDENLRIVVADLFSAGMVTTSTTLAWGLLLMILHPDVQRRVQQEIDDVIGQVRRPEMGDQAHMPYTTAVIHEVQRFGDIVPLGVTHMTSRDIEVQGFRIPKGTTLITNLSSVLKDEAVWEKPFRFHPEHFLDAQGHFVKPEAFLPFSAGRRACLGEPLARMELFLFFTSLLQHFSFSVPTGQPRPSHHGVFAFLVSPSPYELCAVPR
T4 sequence (P11712 whole entry): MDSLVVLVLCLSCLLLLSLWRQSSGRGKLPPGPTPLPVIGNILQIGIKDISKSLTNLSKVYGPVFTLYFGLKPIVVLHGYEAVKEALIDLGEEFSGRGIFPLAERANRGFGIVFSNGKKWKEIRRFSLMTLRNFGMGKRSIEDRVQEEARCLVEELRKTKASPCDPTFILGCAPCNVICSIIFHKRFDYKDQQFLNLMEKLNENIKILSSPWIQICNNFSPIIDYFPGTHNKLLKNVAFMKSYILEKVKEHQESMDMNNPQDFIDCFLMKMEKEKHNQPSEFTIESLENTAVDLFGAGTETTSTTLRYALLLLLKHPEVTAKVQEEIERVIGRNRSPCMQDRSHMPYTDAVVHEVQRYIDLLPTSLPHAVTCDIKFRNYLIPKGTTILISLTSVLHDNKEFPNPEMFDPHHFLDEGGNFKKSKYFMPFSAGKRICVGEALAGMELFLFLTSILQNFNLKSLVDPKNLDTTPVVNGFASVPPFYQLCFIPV

Compound | inhibition at 10 µM (PI-3 kinase γ; compound at 10 μmol/L) [%] | inhibition at 50 µM (PI-3 kinase γ; PI3Kγ, compound at 50 μM) [%] | other results
CC(=O)Nc1cc2n(n1)CCN2c1ccc2c(c1)CCCN2.Cl.Cl [Compound I-319] | ≥ 95 | – | solubility at 16 h (Solubility test): > 50 µM
CN1CCc2cc(N3CCn4nc(NC(=O)CC5CCNC5)cc43)ccc2C1=O.Cl.Cl (stereo not shown) [Compound I-356] | ≥ 95 | – | IC50 (CYP2D6): > 20 µM; solubility at 16 h (Solubility test): > 50 µM; IC50 (CYP1A2): > 20 µM; IC50 (CYP2C19): > 20 µM; IC50 (CYP2C9): > 20 µM; IC50 (CYP3A4): > 20 µM
CC(C)NC(=O)c1csc(C(=O)Nc2cc3n(n2)CCN3c2ccc3c(c2)CCN(C)C3=O)c1 [Compound I-402] | 91 | – | IC50 (CYP2D6): > 20 µM; IC50 (CYP1A2): > 20 µM; IC50 (CYP2C19): > 20 µM; IC50 (CYP2C9): > 20 µM; IC50 (CYP3A4): > 20 µM
CNC(=O)Nc1cc2n(n1)CCN2c1cccc(OC)c1 [Compound I-61] | – | ≥ 95 | solubility at 16 h (Solubility test): > 50 µM
CN(C)C(=O)c1cc(C(=O)Nc2cc3n(n2)CCN3c2ccc3c(c2)CCN(C)C3=O)cs1 [Compound I-432] | ≥ 95 | – | IC50 (CYP2D6): > 20 µM; IC50 (CYP1A2): > 20 µM; IC50 (CYP2C19): > 20 µM; IC50 (CYP2C9): > 20 µM; IC50 (CYP3A4): > 20 µM
CNC(=O)Nc1cc2n(n1)CCN2c1ccc(C(=O)O)s1 [Compound I-217] | – | ≥ 95 | IC50 (CYP2D6): > 20 µM; solubility at 16 h (Solubility test): > 50 µM; IC50 (CYP1A2): > 20 µM; IC50 (CYP2C19): > 20 µM; IC50 (CYP2C9): > 20 µM; IC50 (CYP3A4): > 20 µM
COc1cc(N2CCc3nc(NC(=O)C(=O)c4ccccc4)sc3C2)nc(OC)n1 [Compound I-259] | – | 89 | –
COc1cc(N2CCc3nc(NC(=O)Nc4cccs4)sc3C2)nc(OC)n1 [Compound I-296] | 88 | – | –
COc1cccc(N2CCn3nc(NC(=O)CCNC(=O)OC(C)(C)C)cc32)c1 [Compound I-293] | 86 | – | –
COC(=O)c1cc(N2CCc3nc(NC(=O)c4cccc(Cl)c4)sc3C2)nc(Cl)n1 [Compound I-126] | – | ≥ 95 | –
CN1CCc2cc(N3CCn4nc(NC(=O)c5ccc(N)nc5)cc43)ccc2C1=O [Compound I-386] | ≥ 95 | – | –
CNC(=O)Nc1nc2c(s1)CN(c1ccnc(Cl)n1)CC2 [Compound I-94] | – | ≥ 95 | –
CNC(=O)Nc1cc2n(n1)CCN2c1cccc(CC(=O)O)c1 [Compound I-153] | – | 74 | –
NC(=O)CCC(=O)Nc1cc2n(n1)CCN2c1cccc(Cl)c1 [Compound I-249] | – | ≥ 95 | –
CC(C)NC(=O)c1ccccc1NC(=O)Nc1nc2c(s1)CN(C(=O)c1ccc(O)cc1)CC2 [Compound I-550] | 81 | – | –
CNC(=O)Nc1cc2n(n1)CCN2c1cc(C(=O)OC)cc(-c2ccccc2)c1 [Compound I-161] | – | ≥ 95 | –
CNC(=O)Nc1nc2c(s1)CN(c1cc(OCC3CC3)nc(Cl)n1)CC2 [Compound I-325] | – | – | inhibition at 50 µM (PI-3 kinase γ; compound at 50 μmol/L): 81%
CNC(=O)Nc1cc2n(n1)CCN2c1ccc(F)c(C(=O)OC(C)(C)C)c1 [Compound I-184] | – | ≥ 95 | –
CN1CCc2cc(N3CCn4nc(NC(=O)c5cc(C(=O)O)cs5)cc43)ccc2C1=O [Compound I-401] | 93 | – | –
CNC(=O)Nc1cc2n(n1)CCN2c1ccc(F)c(C(=O)O)c1 [Compound I-189] | – | ≥ 95 | –

Compound | inhibition at 10 µM (PI-3 kinase γ; compound at 10 μmol/L) [%] | inhibition at 50 µM (PI-3 kinase γ; PI3Kγ, compound at 50 μM) [%] | other results
CC(=O)Nc1cc2n(n1)CCN2c1ccccc1 [Compound I-140] | – | ≥ 95 | –
O=C(Nc1cc2n(n1)CCN2c1cccc(Cl)c1)c1ccn[nH]1 [Compound I-246] | – | 90 | –
CNC(=O)Nc1cc2n(n1)CCN2c1cc(C(=O)N2CCOCC2)cc(-c2cnc(N)nc2)c1 [Compound I-209] | – | ≥ 95 | –
O=C(O)c1cccc(C(=O)Nc2cc3n(n2)CCN3c2cccc(Cl)c2)c1 [Compound I-247] | – | 95 | –
COCCNC(=O)c1ccc(C(=O)Nc2cc3n(n2)CCN3c2ccc3c(c2)CCN(C)C3=O)s1 [Compound I-410] | ≥ 95 | – | –
O=C(Cn1ccnc1)Nc1cc2n(n1)CCN2c1cccc(Cl)c1 [Compound I-242] | – | ≥ 95 | –
COc1cccc(N2CCn3nc(N)cc32)c1 [Compound I-286] | – | 77 | –
CCCNC(=O)Cc1cc(C(=O)Nc2cc3n(n2)CCN3c2ccc3c(c2)CCN(C)C3=O)cs1 [Compound I-496] | ≥ 95 | – | –
COc1cc(N2CCc3nc(NC(=O)NCCC(=O)N4CCC[C@H]4C(=O)OC(C)(C)C)sc3C2)nc(OC)n1 [Compound I-275] | – | – | inhibition at 10 µM (PI-3 kinase γ; PI3Kγ, compound at 10 μM): ≥ 95%
CC(C)CCNC(=O)CCNC(=O)Nc1cc2n(n1)CCN2c1ccc2c(c1)CCN(C)C2=O [Compound I-538] | 94 | – | –
CNC(=O)Nc1nc2c(s1)CN(c1cc(Cl)nc(Cl)n1)CC2 [Compound I-111] | – | ≥ 95 | –
CNC(=O)Nc1cc2n(n1)CCN2C(=O)Oc1ccccc1 [Compound I-51] | – | 87 | –
CNC(=O)Nc1cc2n(n1)CCN2c1ccccc1 [Compound I-50] | – | ≥ 95 | –
CC(C)(C)OC(=O)N1CCc2nc(NC(=O)Nc3cccc(Cl)c3)sc2C1 [Compound I-117] | – | 76 | –
O=C(Nc1cc2n(n1)CCN2c1ccc2cnccc2c1)OCc1ccccc1 [Compound I-291] | ≥ 95 | – | –
COc1cc(N2CCc3nc(NC(=O)NCC4(C(=O)NC(C)C)CC4)sc3C2)nc(OC)n1 [Compound I-546] | 86 | – | –
CN1CCc2cc(N3CCn4nc(NC(=O)c5ccccc5NC(=O)OC(C)(C)C)cc43)ccc2C1=O [Compound I-493] | 91 | – | –
CNC(=O)Nc1nc2c(s1)CN(c1cc(Cl)ncn1)CC2 [Compound I-106] | – | ≥ 95 | –
CN1CCc2cc(N3CCn4nc(NC(=O)c5cnc(N6CCC[C@H]6C(=O)OC(C)(C)C)s5)cc43)ccc2C1=O [Compound I-525] | 94 | – | –
CNC(=O)Nc1nc2c(s1)CN(c1cc(Oc3ccccc3)nc(OC(C)(C)C)n1)CC2 [Compound I-150] | – | ≥ 95 | –
